Measured values published in ChEMBL document CHEMBL1201862, “PubChem BioAssay data set” (2004).
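In this assay, cells in 96-well plates receive the compound at five concentrations for 48 hours. Endpoints are linearly interpolated between the surrounding concentrations. At the GI50, growth is halved.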 Calls of active or inactive are those of the source. Cut-off read from the data, not from the text of the source: active = GI50 up to about 1.1 µM and inactive = higher.

Columns and labels:
Assay in all cases: inhibition of tumour cell growth, NCI panel, 48 h
OVCAR-5 = tested on: OVCAR-5
SF-268 = tested on: SF-268
TK-10 = tested on: TK-10
SK-OV-3 = tested on: SK-OV-3
NCI-H460 = tested on: NCI-H460
LOX IMVI = tested on: LOX IMVI
UO-31 = tested on: UO-31
MCF7 = tested on: MCF7
HCT-15 = tested on: HCT-15
HOP-62 = tested on: HOP-62
K562 = tested on: K562
MDA-N = tested on: MDA-N
MOLT-4 = tested on: MOLT-4
SK-MEL-28 = tested on: SK-MEL-28
SF-539 = tested on: SF-539
786-0 = tested on: 786-0
RPMI-8226 = tested on: RPMI-8226
IGROV-1 = tested on: IGROV-1
HT-29 = tested on: HT-29
OVCAR-4 = tested on: OVCAR-4

Row | Structure (SMILES) | GI50 (OVCAR-5) | GI50 (SF-268) | GI50 (TK-10) | GI50 (SK-OV-3) | GI50 (NCI-H460) | GI50 (LOX IMVI) | GI50 (UO-31) | GI50 (MCF7) | GI50 (HCT-15) | GI50 (HOP-62) | GI50 (K562) | GI50 (MDA-N) | GI50 (MOLT-4) | GI50 (SK-MEL-28) | GI50 (SF-539) | GI50 (786-0) | GI50 (RPMI-8226) | GI50 (IGROV-1) | GI50 (HT-29) | GI50 (OVCAR-4)
1 | O=C1N=C(SC2OC(CO)C(O)C(O)C2O)S/C1=C\c1ccccc1 (stereo not given) | > 100 µM (inactive) | > 100 µM (inactive) | > 100 µM (inactive) | > 100 µM (inactive) | > 100 µM (inactive) | > 100 µM (inactive) | > 100 µM (inactive) | > 100 µM (inactive) | > 100 µM | > 100 µM (inactive) | > 100 µM (inactive) | > 100 µM (inactive) | > 100 µM (inactive) | > 100 µM (inactive) | > 100 µM (inactive) | > 100 µM (inactive) | > 100 µM (inactive) | > 100 µM (inactive) | > 100 µM (inactive) | 
2 | O=c1[nH]ncc2[nH]c3c4ccccc4ccc3c12 | 39.9 µM (inactive) | 37.2 µM (inactive) | 28.6 µM (inactive) | 31.1 µM (inactive) | 32.1 µM (inactive) | 25.4 µM (inactive) | 25.5 µM (inactive) | 18.4 µM (inactive) | 12.4 µM | 40.6 µM (inactive) | 45.7 µM (inactive) | 26.4 µM (inactive) | 35.6 µM (inactive) |  | 50.1 µM (inactive) | 61.7 µM (inactive) | 38.5 µM (inactive) |  | 39 µM (inactive) | 44.5 µM (inactive)
3 | CC(/C=C/C(O)=C1/C(=O)CNC1=O)=C\[C@@H](C)[C@H]1O[C@@]2(C)O[C@H](C(=O)[C@@H]3O[C@@]32C)[C@@H]1C | 18.3 µM (inactive) | 21.1 µM (inactive) | 19.2 µM (inactive) | 21.5 µM (inactive) |  | 14.5 µM (inactive) | 13.8 µM (inactive) | 19.7 µM (inactive) | 18.4 µM | 22.2 µM (inactive) | 19.8 µM (inactive) | 35.8 µM (inactive) | 14.7 µM (inactive) | 17.6 µM (inactive) | 18.7 µM (inactive) | 16.7 µM (inactive) | 12.2 µM (inactive) | 20.4 µM (inactive) | 21.9 µM (inactive) | 
4 | CCOC(=O)C1(C(N)=O)C(=O)c2ccncc2C1=O (stereo not given) | > 100 µM (inactive) | > 100 µM (inactive) |  | > 100 µM (inactive) | > 100 µM (inactive) | > 100 µM (inactive) | > 100 µM (inactive) | > 100 µM (inactive) | > 100 µM |  | > 100 µM (inactive) | > 100 µM (inactive) |  | > 100 µM (inactive) | > 100 µM (inactive) | > 100 µM (inactive) | > 100 µM (inactive) | > 100 µM (inactive) | > 100 µM (inactive) | > 100 µM (inactive)
5 | Cc1ccc([S+]([O-])c2cccs2)cc1 (stereo not given) | > 100 µM (inactive) | > 100 µM (inactive) | > 100 µM (inactive) |  | > 100 µM (inactive) |  | > 100 µM (inactive) | > 100 µM (inactive) | > 100 µM | > 100 µM (inactive) | > 100 µM (inactive) | > 100 µM (inactive) | > 100 µM (inactive) | > 100 µM (inactive) | > 100 µM (inactive) | > 100 µM (inactive) | > 100 µM (inactive) |  | > 100 µM (inactive) | 
6 | O=C(NCCC1CN(C(=O)OCc2ccccc2)c2ccccc21)OCc1ccccc1 (stereo not given) | > 100 µM (inactive) | > 100 µM (inactive) | > 100 µM (inactive) | > 100 µM (inactive) | 96.8 µM (inactive) |  | > 100 µM (inactive) | 60.4 µM (inactive) | > 100 µM | > 100 µM (inactive) | > 100 µM (inactive) | > 100 µM (inactive) | > 100 µM (inactive) | > 100 µM (inactive) |  | > 100 µM (inactive) | > 100 µM (inactive) | > 100 µM (inactive) | > 100 µM (inactive) | > 100 µM (inactive)
7 | CC(=O)O[C@H]1C(=O)[C@@]2(C)C(C(OC(=O)c3ccccc3)[C@]3(O)CC(OC(=O)C(O)C(NC(=O)c4ccccc4)c4cccc(Cl)c4)C(C)=C1C3(C)C)[C@]1(OC(C)=O)CO[C@@H]1C[C@@H]2O (stereo not given in full) | 4.15 µM (inactive) | 7.26 µM (inactive) | > 10 µM (inactive) | > 10 µM (inactive) | 5.28 µM (inactive) | 4.29 µM (inactive) |  | 3.06 µM (inactive) | > 10 µM | 7.01 µM (inactive) | 4.94 µM (inactive) | 0.984 µM (active) | 4.8 µM (inactive) |  | 3.24 µM (inactive) | > 10 µM (inactive) | 2.21 µM (inactive) | 3.88 µM (inactive) | 2.46 µM (inactive) | > 10 µM (inactive)
8 | CCOC(=O)c1cc(-c2ccc(OC)cc2)c([N+](=O)[O-])[nH]1 | > 10 µM (inactive) | > 10 µM (inactive) | > 10 µM (inactive) | > 10 µM (inactive) | > 10 µM (inactive) |  | > 10 µM (inactive) | > 10 µM (inactive) | > 10 µM | > 10 µM (inactive) | 1.95 µM (inactive) | > 2.46 µM (inactive) | > 10 µM (inactive) | > 10 µM (inactive) | > 10 µM (inactive) | > 10 µM (inactive) |  | > 10 µM (inactive) | > 10 µM (inactive) | > 10 µM (inactive)
9 | O=C1CN(c2cccc(C(F)(F)F)c2)C(=O)CN1CCN1CC(=O)N(c2cccc(C(F)(F)F)c2)CC1=O | > 100 µM (inactive) | > 100 µM (inactive) | > 100 µM (inactive) | > 100 µM (inactive) | > 100 µM (inactive) |  | > 100 µM (inactive) | > 100 µM (inactive) | > 100 µM | > 100 µM (inactive) | > 100 µM (inactive) | > 100 µM (inactive) | > 100 µM (inactive) | > 100 µM (inactive) | > 100 µM (inactive) | > 100 µM (inactive) | > 100 µM (inactive) | > 100 µM (inactive) | > 100 µM (inactive) | > 100 µM (inactive)
10 | N#Cc1ccc(/C=[N+](/C=c2ccc(=C=[N-])cc2)N(CCO)C2=NCCN2)cc1 | > 100 µM (inactive) | > 100 µM (inactive) | > 100 µM (inactive) | > 100 µM (inactive) | > 100 µM (inactive) | > 100 µM (inactive) | > 100 µM (inactive) | > 100 µM (inactive) | > 100 µM | > 100 µM (inactive) | > 100 µM (inactive) | > 100 µM (inactive) | > 100 µM (inactive) |  | > 100 µM (inactive) | > 100 µM (inactive) |  | > 100 µM (inactive) | > 100 µM (inactive) | > 100 µM (inactive)
11 | OCC1OC(c2n[nH]c3c(O)ncnc23)C(O)C1O (stereo not given) | 18.9 µM (inactive) |  |  | 2.89 µM (inactive) | 10.6 µM (inactive) | 3.92 µM (inactive) | 8.79 µM (inactive) | 28.7 µM (inactive) | 6.03 µM | 9.79 µM (inactive) | 7.48 µM (inactive) | 31.7 µM (inactive) | 5.37 µM (inactive) | 50 µM (inactive) | 26 µM (inactive) | 9.4 µM (inactive) | 21.9 µM (inactive) | 18.4 µM (inactive) | 11.9 µM (inactive) | 7.89 µM (inactive)
12 | CNc1nc(OC)c2c(n1)n(C)c[n+]2C [HETEROMINE B] | > 100 µM (inactive) | > 100 µM (inactive) | > 100 µM (inactive) | > 100 µM (inactive) | > 100 µM (inactive) | > 100 µM (inactive) | > 100 µM (inactive) |  | > 100 µM | > 100 µM (inactive) | > 100 µM (inactive) | > 100 µM (inactive) | > 100 µM (inactive) | > 100 µM (inactive) | > 100 µM (inactive) | > 100 µM (inactive) | > 100 µM (inactive) | > 100 µM (inactive) | > 100 µM (inactive) | 
13 | O=C(OCc1ccccc1)N1CCN(C(=O)OCc2ccccc2)CCN(C(=O)OCc2ccccc2)CCN(C(=O)OCc2ccccc2)CCN(C(=O)OCc2ccccc2)CC1 | > 100 µM (inactive) |  | 46.6 µM (inactive) | > 100 µM (inactive) | > 100 µM (inactive) | 80 µM (inactive) | 22.8 µM (inactive) | > 100 µM (inactive) | 46.8 µM | 65 µM (inactive) |  | > 100 µM (inactive) | > 100 µM (inactive) | > 100 µM (inactive) | 28.3 µM (inactive) | 16.8 µM (inactive) |  |  |  | 57.4 µM (inactive)
14 | CC1(C)C2CCC1(C)C(NC(=O)COCCOCC(N)=O)C2 (stereo not given) | > 100 µM (inactive) | > 100 µM (inactive) | > 100 µM (inactive) | > 100 µM (inactive) | > 100 µM (inactive) |  | > 100 µM (inactive) | > 100 µM (inactive) |  | > 100 µM (inactive) | 32.1 µM (inactive) | > 100 µM (inactive) | > 100 µM (inactive) | > 100 µM (inactive) | > 100 µM (inactive) | > 100 µM (inactive) |  | > 100 µM (inactive) | > 100 µM (inactive) | > 100 µM (inactive)
15 | COC(=O)/C=C1\CCC(C)(C(=O)NS(=O)(=O)c2ccc(C)cc2)C1(C)C (stereo not given) | > 100 µM (inactive) | > 100 µM (inactive) | > 100 µM (inactive) | > 100 µM (inactive) | > 100 µM (inactive) | > 100 µM (inactive) | > 100 µM (inactive) | > 100 µM (inactive) | > 100 µM | > 100 µM (inactive) | > 100 µM (inactive) | > 100 µM (inactive) | > 100 µM (inactive) |  | > 100 µM (inactive) | > 100 µM (inactive) | > 100 µM (inactive) | > 100 µM (inactive) |  | > 100 µM (inactive)
